Data published in patent US20240000831A1, “MOLECULAR BASIS OF FATTY LIVER INHIBITION BY SODIUM BORATES” (YEDITEPE UNIVERSITESI, priority 2020, published 2024).
Read-outs that look alike come from different tables or passages of the source.

Key:
[1] = test system: non-alcoholic fatty liver pathway genes in healthy human cells; experiment: Microarray experiment: gene expression related to fatty liver; format: cell-based; conditions: healthy human cells treated for 3 days; ADIPOR2, PRKAG2, IRS1, PIK3R1, NFKB1, MAP3K11, BID, CYCS, BAX, CASP3, TGFB1
Procedure: All changes in the level of gene expression related to fatty liver in healthy human cells were determined by this method upon being treated with sodium borates for 3 days. It was determined how these genes affect the pathway related to fatty liver. As a result of the microarray experiment, it is understood that the expression level of many genes in the non-alcoholic fatty liver pathway decreased by 2 times and more, and fatty liver was prevented as the pathway lost its function substantially. Genes, whose expression was reduced, were ADIPOR2, PRKAG2, IRS1, PIK3R1, NFKB1, MAP3K11, BID, CYCS, BAX, CASP3 and TGFB1 (FIG. 1). In our in vivo study, it has been proven on animals that fatty liver was inhibited as a result of the failure of this pathway.

[2] = test system: fatty liver caused by high-fat diet in balb/c mice; experiment: In vivo experiment: liver weight of high-fat diet mice; conditions: YYD supplemented with 1.5 mg/g SB, 10 weeks, female balb/c mice
Procedure: (§1) 8-weeks-old female 24 balb/c mice were used for the in vivo experiment. The adaptation process was completed in cages in a temperature-controlled room with a 12-hour light/dark cycle. Then, the mice were divided into four different dietary groups (n=6 for each group): normal diet (2.70 kcal/g), high-fat diet (YYD) (4.00 kcal/g), YYD supplemented with 0.5 mg/g SB, and YYD supplemented with 1.5 mg/g SB. At the end of 10 weeks, mice were sacrificed and weights of their livers were measured. At the end of 10 weeks, the livers of the mice were removed and weighed, and it was observed that fatty liver caused by high-fat diet was inhibited by the use of 1.5 mg/g SB as a supplement (FIG. 2A).

[3] = test system: pathological disorders in the liver caused by high-fat diet in balb/c mice; experiment: Histological evaluation of liver tissue (hematoxylin-eosin staining scores); format: in vivo; conditions: for hematoxylin-eosin staining technique score (Mean ± SD): 10 weeks, n = 6, YYD alone 12.6 ± 1.54, control 1.60 ± 1.14
Procedure: as §1
Liver tissues of mice were prepared for histological evaluation. These tissue samples were immersed in 10% neutral formaldehyde prepared with 0.1 M phosphate buffer (pH 7.4) for fixation at 4° C. Subsequently, the samples were rinsed in tap water for 12 hours, then dehydrated in an alcohol batch and embedded in paraffin. From samples embedded in paraffin, 5 micron thick samples were obtained using a rotary microtome (Leica RM 2245 model; Leica Instruments, Germany). All tissue sections were taken onto poly-L-lysine coated slides. All these samples were stained with hematoxylin eosin staining technique and imaged under a light microscope (Leica DM6000B). […] This method has been used to evaluate the situation of pathological deteriorations caused by high fat diet when different sodium boron administrations are applied and when not applied.

[4] = Toxicology studies in rats adapted to humans; format: in vivo; conditions: daily dose of 500 mg, rat toxicology studies adapted to humans
Procedure: Today, there is no specific drug for direct treatment of fatty liver. […] It is known that boron homeostasis taken into mammalian systems is excreted via urine within 72 hours. Boron also regulates calcium, potassium and magnesium metabolisms in the body.

[5] = cited from earlier work

With sodium borate [SB] the “decrease in expression levels of genes in the non-alcoholic fatty liver pathway” value [1] was at least 2 times, the “fatty liver caused by high-fat diet (liver weight)” value [2] was “inhibited” and the “hematoxylin-eosin staining technique score (Mean ± SD)” value ([3]; YYD + 0.5 mg SB/g VA) was 8.6±1.14. For the same molecule, the “hematoxylin-eosin staining technique score (Mean ± SD)” value ([3]; YYD + 1.5 mg SB/g VA) was 3.6 ± 0.89, the “hematoxylin-eosin staining technique score (Mean ± SD)” value ([3]; YYD + 1.5 mg SB/g VA, listed as sodium borate) was 3.6±0.89 and the “pathological disorders caused by high-fat diet (histological evaluation)” value ([3]; both doses (0.5 and 1.5 mg/g), liver tissue) was “decreased the pathological disorders”. For the same molecule, the side effects [4] was “no side effects”.
For `[B]` [boron], the “time to excretion via urine” value ([5]; mammalian systems) is given as at most 72 h and the side effects ([5]; up to 18 mg of boron daily in adults) is given as “does not cause any side effects”.
